Earlier results as cited in the PKSmart pharmacokinetics tables (Seal et al. 2025).

Key:
[1] = Lombardo et al. 2013, J Clin Pharmacol 53:178, doi 10.1177/0091270012440282; details: for Vd / clearance: in vivo, iv; for fraction unbound: plasma
[2] = Lombardo, Berellini, Obach 2018, Drug Metab Dispos 46:1466, doi 10.1124/dmd.118.082966; details: human; for MRT / Vd / clearance / half-life: in vivo, iv; for fraction unbound: plasma

SMILES	Vd ([1]; dog)	clearance ([1]; dog)	MRT [2]	Vd [2]	clearance [2]	half-life [2]	fraction unbound ([1]; dog)	Vd ([1]; rat)	clearance ([1]; rat)	fraction unbound ([1]; rat)	fraction unbound [2]	Vd ([1]; monkey)	clearance ([1]; monkey)	fraction unbound ([1]; monkey)
Nc1[nH]c(=O)ncc1F	0.64 L/kg	2.4 mL/min/kg	5.7 h	0.68 L/kg	2 mL/min/kg	4.2 h	–	–	–	–	–	–	–	–
CCC(CC)O[C@@H]1C=C(C(=O)O)C[C@H](N)[C@H]1NC(C)=O	0.56 L/kg	5.3 mL/min/kg	1.3 h	0.37 L/kg	4.8 mL/min/kg	1.8 h	0.304	1.3 L/kg	25 mL/min/kg	–	–	–	–	–
COc1ccc2c3c1O[C@H]1C[C@@H](O)C=C[C@@]31CCN(C)C2	2.78 L/kg	12.3 mL/min/kg	6.8 h	2.3 L/kg	5.6 mL/min/kg	5.3 h	0.981	5.2 L/kg	31.7 mL/min/kg	0.75	–	–	–	–
O=c1n(CCCN2CCN(c3cccc(Cl)c3)CC2)nc2ccccn12	–	–	6.2 h	0.52 L/kg	1.4 mL/min/kg	7.3 h	–	1.76 L/kg	51.8 mL/min/kg	0.12	0.08	–	–	–
CC(=O)Nc1nnc(S(N)(=O)=O)s1	–	–	9.5 h	0.37 L/kg	0.65 mL/min/kg	–	–	0.21 L/kg	68 mL/min/kg	0.2	0.04	–	–	–
COc1cccc2c1C(=O)c1c(O)c3c(c(O)c1C2=O)C[C@@](O)(C(=O)CO)C[C@@H]3O[C@H]1C[C@H](N)[C@H](I)[C@H](C)O1	2.6 L/kg	6.5 mL/min/kg	6.4 h	53.6 L/kg	140 mL/min/kg	10.3 h	–	14 L/kg	36.6 mL/min/kg	–	–	14 L/kg	43.3 mL/min/kg	–
COc1nc(N)nc2c1ncn2[C@@H]1O[C@H](CO)[C@@H](O)[C@@H]1O	–	–	1 h	4.9 L/kg	81 mL/min/kg	0.5 h	–	–	–	–	–	1.3 L/kg	42 mL/min/kg	–
Cc1ncc([N+](=O)[O-])n1CCO	0.1 L/kg	2.5 mL/min/kg	7.8 h	0.4 L/kg	0.85 mL/min/kg	7.1 h	0.983	1.2 L/kg	5.8 mL/min/kg	–	–	–	–	–
CC(c1ncncc1F)[C@](O)(Cn1cncn1)c1ccc(F)cc1F (stereo partly specified)	0.88 L/kg	–	4.4 h	2.2 L/kg	–	5.6 h	0.49	1.78 L/kg	–	0.44	0.42	–	–	–
CCCC(=O)OCOC(=O)C1=C(C)NC(C)=C(C(=O)OC)C1c1cccc(Cl)c1Cl (stereo unspecified)	0.21 L/kg	–	0.07 h	0.58 L/kg	–	0.3 h	–	0.44 L/kg	–	–	–	–	–	–
O=C(CCCN1CCC(O)(c2ccc(Cl)cc2)CC1)c1ccc(F)cc1	37 L/kg	–	36 h	17 L/kg	–	35 h	–	10.4 L/kg	–	0.24	–	3.7 L/kg	–	–
CON=C(C(=O)NC1C(=O)N2C(C(=O)O)=C(COC(N)=O)CS[C@H]12)c1ccco1 (stereo partly specified)	1.5 L/kg	5 mL/min/kg	1.1 h	0.15 L/kg	2.2 mL/min/kg	1.1 h	–	–	–	–	–	–	–	–
COC(=O)C(c1ccccc1)C1CCCCN1 (stereo unspecified)	–	–	4.5 h	2.2 L/kg	9.42 mL/min/kg	4.8 h	–	3 L/kg	53 mL/min/kg	–	0.85	–	–	–
CC(=N)N1CC[C@H](SC2=C(C(=O)O)N3C(=O)C([C@@H](C)O)[C@H]3C2)C1 (stereo partly specified)	0.21 L/kg	4.85 mL/min/kg	1.2 h	0.19 L/kg	2.6 mL/min/kg	0.96 h	0.95	0.2 L/kg	27.7 mL/min/kg	0.95	–	0.3 L/kg	6.52 mL/min/kg	0.93
COc1cc(NCc2ccc3nc(N)nc(N)c3c2C)cc(OC)c1OC	11.7 L/kg	33.2 mL/min/kg	17 h	0.77 L/kg	0.77 mL/min/kg	17 h	1	9.2 L/kg	71.1 mL/min/kg	–	0.05	1.56 L/kg	8.5 mL/min/kg	0.1
COc1cc2nc(N3CCN(C(=O)C4COc5ccccc5O4)CC3)nc(N)c2cc1OC (stereo unspecified)	5 L/kg	13 mL/min/kg	14 h	1.3 L/kg	–	10 h	0.0653	3 L/kg	–	0.03	–	–	–	–
CCCC1O[C@@H]2C[C@H]3[C@@H]4CC=C5CC(=O)C=C[C@]5(C)[C@H]4[C@@H](O)C[C@]3(C)[C@]2(C(=O)CO)O1 (stereo partly specified)	–	–	3.2 h	3.9 L/kg	20 mL/min/kg	2.8 h	–	29.2 L/kg	72 mL/min/kg	0.039	–	–	–	–
CC(C)C[C@H](NC(=O)C(NC(=O)c1cccc(-c2ccccc2)n1)[C@@H](C)O)B(O)O (stereo partly specified)	–	–	50.6 h	0.87 L/kg	0.29 mL/min/kg	42.1 h	–	18.1 L/kg	3.17 mL/min/kg	–	–	–	–	–
O=P(O)(O)C(O)(Cn1ccnc1)P(=O)(O)O	0.28 L/kg	4.13 mL/min/kg	4.5 h	0.6 L/kg	2.2 mL/min/kg	11 h	–	–	–	–	0.78	–	–	–
O=C(c1ccc(F)cc1)C1CCN(CCn2c(=O)[nH]c3ccccc3c2=O)CC1	–	24.7 mL/min/kg	–	–	–	12 h	0.0948	–	3.8 mL/min/kg	0.01	–	–	–	–
Nc1cc(-c2ccncc2)c[nH]c1=O	1.2 L/kg	6 mL/min/kg	2.4 h	1.3 L/kg	8.9 mL/min/kg	2 h	–	–	–	–	0.89	–	–	–
Cn1nnnc1SCC1=C(C(=O)O)N2C(=O)C(NC(=O)C(O)c3ccccc3)[C@H]2SC1 (stereo partly specified)	–	–	0.75 h	0.16 L/kg	3.6 mL/min/kg	0.75 h	–	0.25 L/kg	21.8 mL/min/kg	–	0.25	–	–	–
